The text below walks through data of patent US8815909B2, “Diaminocyclohexane compounds and uses thereof” (Bristol-Myers Squibb Company, priority 2011, dated 2014).

One test deals with T1, human Y4 receptor (Homo sapiens, UniProt P50391).
T1 construct: expressed in transfected cells
T1 sequence (P50391 whole entry): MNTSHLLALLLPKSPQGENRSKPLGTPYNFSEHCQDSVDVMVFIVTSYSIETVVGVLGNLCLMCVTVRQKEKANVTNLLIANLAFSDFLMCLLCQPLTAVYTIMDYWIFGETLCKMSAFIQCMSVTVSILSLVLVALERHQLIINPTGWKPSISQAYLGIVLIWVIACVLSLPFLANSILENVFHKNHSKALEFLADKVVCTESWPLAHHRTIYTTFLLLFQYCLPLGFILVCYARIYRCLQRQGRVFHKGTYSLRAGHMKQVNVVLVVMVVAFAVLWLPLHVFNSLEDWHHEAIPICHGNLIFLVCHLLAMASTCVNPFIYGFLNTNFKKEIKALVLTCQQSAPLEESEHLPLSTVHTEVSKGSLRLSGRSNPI
In words: NPY4 cAMP HTRF Agonist Assay (inhibitory cAMP assay, Gi activation by Y4 agonism). In kind it is cell-based. Particulars: TABLE 2, R2 is Phenyl-CN; read-out: hY4 CAMP EC50. Summed up: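 CHO cells stably expressing human Y4, 5000/well, exposed to compound with forskolin and IBMX in PBS for 30 min at room temperature. Gi-mediated inhibition of cAMP then measured by HTRF after 1 h with d2-conjugate and anti-cAMP cryptate.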
Turning to `CS(=O)(=O)NCc1ccc(-c2ccnc(N[C@@H]3CCCC[C@H]3N[C@H]3CCCN(c4ccc(C#N)cc4)C3)c2)cc1` [Example 243], the EC50 came out at 602 nM.
Same read-out and setting: the same measure for `N#Cc1ccc(N2CCC[C@H](N[C@@H]3CCCC[C@H]3Nc3cc(-c4ccc5[nH]ncc5c4)ccn3)C2)cc1` [Example 210]: 640 nM; for `N#Cc1ccc(N2CCC[C@H](N[C@@H]3CCCC[C@H]3Nc3ncc(-c4cccc(C(N)=O)c4)o3)C2)cc1` [Example 265]: 2 nM; for `N#Cc1ccc(N2CCC[C@H](N[C@@H]3CCCC[C@H]3Nc3cc(-c4ccc(C#N)s4)ccn3)C2)cc1` [Example 273]: 542 nM.
Still for that read-out and setting: the same measure for `N#Cc1ccc(N2CCC[C@H](N[C@@H]3CCCC[C@H]3Nc3cc(-n4cccn4)ccn3)C2)cc1` [Example 284]: 176 nM.
In the case of `N#Cc1ccc(N2C[C@@H]3C[C@H](N[C@@H]4CCCC[C@H]4Nc4ncc(-c5ccc(O)cc5)o4)[C@H]2C3)cc1` [Example 225], the EC50 was found to be 54 nM.
For the molecule `C[C@]1(N[C@@H]2CCCC[C@H]2Nc2ncc(-c3cccc(C(N)=O)c3)o2)CCCN(c2ccc(C#N)cc2)C1` [Example 199], the EC50 was found to be 2 nM.

The test is the same for the next values; noted with them: TABLE 3, R2 is Phenyl-NO2; read-out: hY4 CAMP EC50.
As for `O=[N+]([O-])c1ccc(N2C[C@@H]3C[C@H](N[C@@H]4CCCC[C@H]4Nc4cc(Cl)ncn4)[C@H]2C3)cc1` [Example 295], the EC50 turned out to be 122 nM.

The test is the same for the next values; noted with them: TABLE 4, R2 is Pyridinyl-CN; read-out: hY4 CAMP EC50.
As to `N#Cc1cc(N2C[C@@H]3C[C@H](N[C@@H]4CCCC[C@H]4Nc4ncc(-c5ccc(OC(F)(F)F)cc5)o4)[C@H]2C3)ccn1` [Example 310], the EC50 was determined as 124 nM.
Still for that read-out and setting: the same measure for `N#Cc1ccc(N2C[C@@H]3C[C@H](N[C@@H]4CCCC[C@H]4Nc4cc(-c5cccc(C(N)=O)c5)ccn4)[C@H]2C3)nc1` [Example 299]: 392 nM; for `C[C@]1(N[C@@H]2CCCC[C@H]2Nc2cc(-c3cccc(C(N)=O)c3)ccn2)CCCN(c2ccc(C#N)cn2)C1` [Example 301]: 66 nM.

The test is the same for the next values; noted with them: TABLE 5, R2 is Pyridinyl-CF3; read-out: hY4 CAMP EC50.
With `NC(=O)c1cccc(-c2ccnc(N[C@@H]3CCCC[C@H]3N[C@H]3CCCN(c4ccc(C(F)(F)F)cn4)C3)c2)c1` [Example 319], the EC50 came to 10 nM.

The test is the same for the next values; noted with them: TABLE 7, R2 is Pyridinyl-oxadiazole-CH3; read-out: hY4 CAMP EC50.
For `Cc1nc(-c2ccc(N3CCC[C@H](N[C@@H]4CCCC[C@H]4Nc4cc(-c5cccc(C(N)=O)c5)ccn4)C3)nc2)no1` [Example 393], the EC50 worked out at 1 nM.
For the molecule `Cc1nc(-c2ccc(N3CCC[C@H](N[C@@H]4CCCC[C@H]4Nc4nccc(-c5ccccc5)n4)C3)nc2)no1` [Example 391], the half-maximal effective concentration (EC50) worked out at 2 nM.
For `Cc1nc(-c2ccc(N3CCC[C@](C)(N[C@@H]4CCCC[C@H]4Nc4cc(-c5cccc(C(N)=O)c5)ccn4)C3)cn2)no1` [Example 381], the EC50 stood at 5 nM.

Staying with this test, now noted: human Y4 receptor, cAMP; read-out: hY4 CAMP EC50.
Regarding `COC(=O)Nc1cccc(-c2ccnc(N[C@@H]3CCCC[C@H]3N[C@H]3CCCN(c4cnc(-c5noc(C)n5)nc4)C3)c2)c1` [Example 465], the EC50 is 0.02 nM.
Consider `NC(=O)c1cccc(-c2cnc(N[C@@H]3CCCC[C@H]3N[C@H]3CCCN(c4cnc(C(F)(F)F)cn4)C3)o2)c1` [Example 475], for which the EC50 came out at 8 nM.
As to `NC(=O)c1cccc(-c2ccnc(N[C@@H]3CCCC[C@H]3N[C@H]3CCCN(c4cnc(C(F)(F)F)cn4)C3)c2)c1` [Example 473], the EC50 worked out at 79 nM.
Still for that read-out and setting: the value for `NC(=O)c1cccc(-c2cnc(N[C@@H]3CCCC[C@H]3N[C@H]3CCCN(c4ccc(OC(F)(F)F)cc4)C3)o2)c1` [Example 459] was 1 nM; that for `Cn1nnc(-c2ccc(N3CCC[C@H](N[C@@H]4CCCC[C@H]4Nc4cc(-c5ccc(OC(F)F)cc5)ccn4)C3)cc2)n1` [Example 503] was 150 nM; that for `N#Cc1ccnc(N[C@@H]2CCCC[C@H]2N[C@H]2CCCN(c3cnc(C(F)(F)F)nc3)C2)c1` [Example 426] was 600 nM.
On the same count and under the same terms, the same measure for `Cc1nc(-c2ncc(N3CCC[C@H](N[C@@H]4CCCC[C@H]4Nc4cc(C#N)ccn4)C3)cn2)no1` [Example 469]: 96 nM; for `NC(=O)c1cccc(-c2cnc(N[C@@H]3CCCC[C@H]3N[C@H]3C[C@@H]4C[C@H]3N(c3ncc(C(F)(F)F)cn3)C4)o2)c1` [Example 422]: 41 nM; for `N#Cc1ncc(N2CCC[C@H](N[C@@H]3CCCC[C@H]3Nc3cc(-c4cc(F)c(F)cc4F)ccn3)C2)cn1` [Example 436]: 756 nM.
As to `NC(=O)c1cccc(-c2cnc(N[C@@H]3CCCC[C@H]3N[C@H]3CCCN(c4ccc(F)cc4)C3)o2)c1` [Example 461], the EC50 was found to be 55 nM.
On the same count and under the same terms, the same measure for `Cc1noc(-c2ccc(N3CCC[C@H](N[C@@H]4CCCC[C@H]4Nc4ncc(-c5cccc(C(N)=O)c5)o4)C3)cc2)n1` [Example 379]: 1 nM; for `COC(=O)c1cccc(-c2cnc(N[C@@H]3CCCC[C@H]3N[C@H]3CCCN(c4ccc5ncnn5c4)C3)o2)c1` [Example 484]: 312 nM.
Same read-out and setting: the same measure for `NC(=O)c1cccc(-c2ccnc(N[C@@H]3CCCC[C@H]3N[C@H]3CCCN(c4ccc(-n5cccn5)cc4)C3)c2)c1` [Example 511]: 23 nM.

The same test, now with this note: human Y4 stable CHO clonal cells, forskolin + IBMX; read-out: NPY4 cAMP HTRF Agonist Assay EC50.
Consider `N#Cc1ccc(N2CCC[C@H](N[C@@H]3CCCC[C@H]3Nc3noc(-c4ccccc4)n3)C2)cc1` [Example 41], for which the EC50 amounted to 2510 nM.
As to `N#Cc1ccc(N2CCC[C@H](N[C@@H]3CCCC[C@H]3Nc3nccc(-c4ccccc4)n3)C2)cc1F` [Example 47, 2-Fluoro-4-((S)-3-((1R,2R)-2-(4-phenylpyrimidin-2-ylamino)cyclohexylamino)piperidin-1-yl)benzonitrile bis-trifluoroacetate], the EC50 amounted to 34 nM.
Still for that read-out and setting: the same measure for `O=[N+]([O-])c1cnc(N2CCC[C@H](N[C@@H]3CCCC[C@H]3Nc3ncc(-c4ccccc4)o3)C2)nc1` [Example 77, (1R,2R)—N1-((S)-1-(5-Nitropyrimidin-2-yl)piperidin-3-yl)-N2-(5-phenyloxazol-2-yl)cyclohexane-1,2-diamine bis-trifluoroacetate]: 34 nM; for `O=[N+]([O-])c1ccc(N2CCC[C@H](N[C@@H]3CCCC[C@H]3Nc3ncc(-c4ccccc4F)o3)C2)cc1` [Example 9, (1R,2R)—N1-(5-(2-Fluorophenyl)oxazol-2-yl)-N2-((S)-1-(4-nitrophenyl)piperidin-3-yl)cyclohexane-1,2-diamine]: 4 nM; for `CC(C)(C)OC(=O)/C=C/c1ccnc(N[C@@H]2CCCC[C@H]2N[C@H]2CCCN(c3ccc(C#N)cc3)C2)c1` [Example 109, (E)-tert-butyl 3-(2-(((1R,2R)-2-(((S)-1-(4-cyanophenyl)piperidin-3-yl)amino)cyclohexyl)amino)pyridin-4-yl)acrylate]: 119 nM.
For `CCOC(=O)Nc1cccc(-c2cnc(N[C@@H]3CCCC[C@H]3N[C@H]3CCCN(c4ccc(C(F)(F)F)nc4)C3)o2)c1` [Example 102], the EC50 is 0.4 nM.
The same measure, in the same setting: the same measure for `N#Cc1ccc(N2CCC[C@H](N[C@@H]3CCCC[C@H]3Nc3cc(Br)ccn3)C2)cc1` [Example 50, 4-((S)-3-((1R,2R)-2-(4-Bromopyridin-2-ylamino)cyclohexylamino)piperidin-1-yl)benzonitrile]: 231 nM; for `FC(F)(F)Oc1ccc(-c2cnc(N[C@@H]3CCCC[C@H]3N[C@H]3CCCN(c4ncc(C(F)(F)F)cn4)C3)o2)cc1` [Example 80, (1R,2R)—N1-(5-(4-(Trifluoromethoxy)phenyl)oxazol-2-yl)-N2-((S)-1-(5-(trifluoromethyl)pyrimidin-2-yl)piperidin-3-yl)cyclohexane-1,2-diamine bis-trifluoroacetate]: 242 nM.
Same read-out and setting: the value for `N#Cc1ccc(N2CCC[C@H](N[C@@H]3CCCC[C@H]3Nc3cc(-c4cc[nH]n4)ccn3)C2)cc1` [Example 33, 4-((S)-3-((1R,2R)-2-(4-(1H-Pyrazol-3-yl)pyridin-2-ylamino)cyclohexylamino)piperidin-1-yl)benzonitrile tris-trifluoroacetate] was 322 nM; that for `N#Cc1ccc(N2CCC[C@H](N[C@@H]3CCCC[C@H]3Nc3nccc(-c4cccc(OC(F)(F)F)c4)n3)C2)cc1` [Example 61, 4-((S)-3-((1R,2R)-2-(4-(3-(Trifluoromethoxy)phenyl)pyrimidin-2-ylamino)cyclohexylamino)piperidin-1-yl)benzonitrile bis-trifluoroacetate] was 861 nM.
Still for that read-out and setting: the value for `O=[N+]([O-])c1ccc(N2CCC[C@H](N[C@@H]3CCCC[C@H]3Nc3nc4cc(OC(F)(F)F)ccc4o3)C2)cc1` [Example 4, (1R,2R)—N1-((S)-1-(4-Nitrophenyl)piperidin-3-yl)-N2-(5-(trifluoromethoxy)benzo[d]oxazol-2-yl)cyclohexane-1,2-diamine] was 236 nM; that for `FC(F)(F)Oc1ccc(-c2cnc(N[C@@H]3CCCC[C@H]3N[C@H]3CCCN(c4ccc(C(F)(F)F)cn4)C3)o2)cc1` [Example 94, (1R,2R)—N1-(5-(4-(Trifluoromethoxy)phenyl)oxazol-2-yl)-N2-((S)-1-(5-(trifluoromethyl)pyridin-2-yl)piperidin-3-yl)cyclohexane-1,2-diamine] was 210 nM.

Staying with this test, now noted: second TABLE 1, R2 is Phenyl-CF3; read-out: hY4 CAMP EC50.
With `OCCc1ccc(-c2ccnc(N[C@@H]3CCCC[C@H]3N[C@H]3CCCN(c4ccc(C(F)(F)F)cc4)C3)c2)cc1` [Example 152], the EC50 is 508 nM.
Still for that read-out and setting: the value for `CC(C)(O)C#Cc1ccnc(N[C@@H]2CCCC[C@H]2N[C@H]2CCCN(c3ccc(C(F)(F)F)cc3)C2)c1` [Example 162] was 546 nM; that for `OCCCCc1ccnc(N[C@@H]2CCCC[C@H]2N[C@H]2CCCN(c3ccc(C(F)(F)F)cc3)C2)c1` [Example 187] was 42 nM; that for `FC(F)(F)c1ccc(N2CCC[C@H](N[C@@H]3CCCC[C@H]3Nc3cc(-c4cccc(C5CCCN5)c4)ccn3)C2)cc1` (some centres unmarked) [Example 183] was 153 nM.
